Data set [1] deals with VHR, PTP1B, CD45, HePTP, Shp2, and YopH. The format is biochemical.
Data set [2] addresses VHR (Homo sapiens, UniProt P51452). Kind of data set: Ki determination, Michaelis-Menten kinetics with pNPP. It counts as biochemical.
Data set [3] has as its system HeLa cells. The experiment in a line: AnnexinV/PI flow cytometry apoptosis assay. Particulars: 20 μM, 24 h.
Data set [4] deals with CaSki cells. Kind of data set: AnnexinV/PI flow cytometry apoptosis assay. The settings on record: 20 μM, 24 h. (In general: Flow cytometry measures light scatter and fluorescence of single cells or particles in a stream.)
For data set [5], the system named is HeLa cells. Kind of data set: Cell numbers. It counts as cell-based. The settings on record: 20 μM, 24 h.

Entries after “also recorded” stand apart in the source; their conditions may differ.

VHR, sequence (P51452 whole entry): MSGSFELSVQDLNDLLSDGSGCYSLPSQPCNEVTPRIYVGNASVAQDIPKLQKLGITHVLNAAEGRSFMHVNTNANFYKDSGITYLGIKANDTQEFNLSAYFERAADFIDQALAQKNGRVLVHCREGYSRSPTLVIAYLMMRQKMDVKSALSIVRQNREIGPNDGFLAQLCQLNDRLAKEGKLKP

For the compound `O=C1/C(=C/C=C/c2ccccc2)SC(=S)N1CCS(=O)(=O)O` [compound 1, 2-((Z)-4-oxo-5-((E)-3-phenylallylidene)-2-thioxothiazolidin-3-yl)ethane-sulfonic acid], the “Selectivity for VHR in counter screen” value in data set [1] is on record as “selectively inhibiting VHR; also recorded: selective for VHR”. The “Inhibition pattern (Lineweaver-Burk plot)” value in data set [2] is listed as “competitively inhibited VHR; also recorded: clear competitive inhibition pattern”. The same compound yielded a Ki in data set [2] (Ki, pNPP substrate) of 809 nM.

Consider `O=C1/C(=C/c2cn(-c3ccccc3)nc2-c2ccc(OCc3ccccc3F)cc2)SC(=S)N1CCS(=O)(=O)O` [SA3], for which the “Percentage of AnnexinV/PI negative cells versus vehicle” value in data set [3] and in data set [4] was “no difference” throughout. Further, the “HeLa cell numbers, percentage of the DMSO control” value in data set [5] was “less than 50%”.

In the case of `O=C1/C(=C/c2cn(-c3ccccc3)nc2-c2ccc(OCc3ccccc3Cl)cc2)SC(=S)N1CCS(=O)(=O)O` [SA2], the “Percentage of AnnexinV/PI negative cells versus vehicle” value in data set [3] and in data set [4] was “no difference” each time.

On to `COc1ccc(OC)c2c1C(=O)c1ccccc1C2=O` [compound 8, 1,4-dimethoxyanthracene-9,10-dione], for which the “Selectivity for VHR in counter screen” value in data set [1] was “selectively inhibiting VHR; also recorded: selective for VHR”.

For orientation: Ki means the dissociation constant of the complex between target and ligand, obtained from inhibition or displacement. Read a high Ki as a looser hold on the target.
